# From PubChem BioAssay (NCI)
#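 In this assay, cells in 96-well plates receive the compound at five concentrations for 48 hours. Endpoints are linearly interpolated between the surrounding concentrations. Abbreviation: GI50, concentration required for 50% inhibition of growth. The concentration for full growth arrest is given as TGI.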
# Tests used:
# Experiment in all cases: NCI anticancer screen, dose series, 48 h
# [1] = system: CCRF-CEM leukemia
# [2] = system: HCT-116 colon
# [3] = system: CAKI-1 renal
# [4] = system: K-562 leukemia
# [5] = system: PC-3 prostate
smiles,measurement,setting,value
C=CCN(CC=C)C(=O)[C@H](CC)[C@@H]1CC[C@@H](C)[C@@H]([C@H](C)[C@@H](O)[C@@H](C)C(=O)[C@H](CC)C2O[C@]3(C=CC(=O)[C@]4(CC[C@@](C)([C@H]5CC[C@](O)(CC)[C@H](C)O5)O4)O3)[C@H](C)C[C@@H]2C)O1 (stereo not given in full),GI50,[1],2650 nM
same,TGI,[1],> 100000 nM
same,GI50,[2],2760 nM
same,TGI,[2],> 100000 nM
same,GI50,[3],1960 nM
same,TGI,[3],> 100000 nM
same,GI50,[4],2310 nM
same,TGI,[4],> 100000 nM
same,GI50,[5],2020 nM
same,TGI,[5],> 100000 nM
